Test results as given in PubChem BioAssay (NCI).
Several values for one entry are separate records, joined by “and”; a condition that tells them apart may be missing. Equal entries are not always repeated.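 Tested at 5 concentrations; 48 h exposure; 96-well plates; endpoints linearly interpolated, else capped at highest concentration. The concentration for 50% growth inhibition is given as GI50. TGI denotes the concentration required for complete inhibition of growth.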

Key:
Assay in all cases: NCI anticancer screen, dose series, 48 h
CAKI-1 renal = system: CAKI-1 renal
HCT-15 colon = system: HCT-15 colon
KM12 colon = system: KM12 colon
LOX IMVI melanoma = system: LOX IMVI melanoma
NCI-H23 lung = system: NCI-H23 lung
OVCAR-5 ovarian = system: OVCAR-5 ovarian
SNB-19 CNS = system: SNB-19 CNS
U251 CNS = system: U251 CNS
UACC-257 melanoma = system: UACC-257 melanoma
SR leukemia = system: SR leukemia

| SMILES | TGI (CAKI-1 renal) | TGI (HCT-15 colon) | TGI (KM12 colon) | TGI (LOX IMVI melanoma) | TGI (NCI-H23 lung) | TGI (OVCAR-5 ovarian) | TGI (SNB-19 CNS) | TGI (U251 CNS) | TGI (UACC-257 melanoma) | TGI (SR leukemia) | GI50 (CAKI-1 renal) | GI50 (HCT-15 colon) | GI50 (KM12 colon) | GI50 (LOX IMVI melanoma) | GI50 (NCI-H23 lung) | GI50 (OVCAR-5 ovarian) | GI50 (SNB-19 CNS) | GI50 (SR leukemia) | GI50 (U251 CNS) | GI50 (UACC-257 melanoma) |
| --- | --- | --- | --- | --- | --- | --- | --- | --- | --- | --- | --- | --- | --- | --- | --- | --- | --- | --- | --- | --- |
| CC(C)c1cccc(C(C)C)c1N1C(=O)C(=O)C(c2nc3ccccc3o2)C(=O)C1=O | > 100 µM | > 100 µM | > 100 µM | > 100 µM | > 100 µM | > 100 µM | > 100 µM | > 100 µM | > 100 µM |  |  |  |  |  |  |  |  |  |  |  |
| CN1Cc2ccccc2/C=C\c2ccccc21 | > 100 µM | > 100 µM | > 100 µM | > 100 µM | > 100 µM |  | > 100 µM | > 100 µM | > 100 µM |  |  |  |  |  |  |  |  |  |  |  |
| CCC(C)CC(C)CC(C)/C=C(\C)C1=C(C)CC(C)(O)O1 (stereo not drawn) | > 100 µM | > 100 µM |  | > 100 µM | > 100 µM |  |  | > 100 µM | > 100 µM |  |  |  |  |  |  |  |  |  |  |  |
| NC1c2ccccc2Nc2ccccc21 | 17.4 µM | 14 µM | 17 µM | 13.2 µM | 17.5 µM | 25.6 µM | 27.7 µM |  | 17.4 µM | 7.24 µM |  |  |  |  |  |  |  |  |  |  |
| C/C(CN1C(=O)c2ccccc2C1=O)=N\NS(=O)(=O)c1cccc(C(=O)O)c1 | > 100 µM | > 100 µM | > 100 µM |  | > 100 µM | > 100 µM | > 100 µM | > 100 µM | > 100 µM | > 100 µM |  |  |  |  |  |  |  |  |  |  |
| Cc1cc(C)c(C#N)c(Sc2nc(C)c([N+](=O)[O-])c(C)c2C#N)n1 | 5.65 µM | 6.25 µM | 19 µM | 3.44 µM | 10.4 µM | 41.1 µM | 88 µM | 10.8 µM |  | > 100 µM | 2.17 µM | 2.32 µM | 3.98 µM | 1.82 µM | 2.87 µM | 4.03 µM | 15.1 µM | 2.94 µM | 3.1 µM |  |
| CC1=C(C(=O)Nc2ccccc2)C(c2ccccc2Cl)C(C(=O)Nc2ccccc2)=C(C)N1 | 57.2 µM | 38.5 µM |  | 33.6 µM | 71.7 µM | 61.2 µM | 92.7 µM | 35.8 µM | 38.5 µM | 52.6 µM |  |  |  |  |  |  |  |  |  |  |
| COc1ccccc1S(=O)(=O)Nc1ccc2c3c(cc(CCC(=O)NCCCCNc4cccc5c4C(=O)N(C4CCC(=O)NC4=O)C5=O)cc13)C(=O)N2C (stereo not drawn) | > 100 µM |  | > 100 µM | > 100 µM | > 100 µM | > 100 µM | > 100 µM | > 100 µM | > 100 µM | > 52.5 µM | 2.31 µM |  | 0.697 µM | 3.47 µM | 17 µM | 2.77 µM | 0.427 µM | 0.248 µM | > 63.4 µM | > 100 µM |
| CCCCCCCCCCCCC(O)c1ccco1 (stereo not drawn) | 33.4 µM | 36 µM | 48.1 µM | 32.2 µM | 30.4 µM | 30.3 µM | 70.7 µM | 29.7 µM | 39.4 µM |  | 18 µM | 19.2 µM | 21.7 µM | 17.9 µM | 16.2 µM | 16.1 µM | 25.9 µM |  | 16.2 µM | 22.6 µM |
| CC(C)N(Cc1ccc(CN(C(=O)CCl)C(C)C)cc1)C(=O)CCl | 3.39 µM | 3.64 µM | 3.54 µM | 1.05 µM | 3.6 µM | 3.97 µM | 5.4 µM | 3.32 µM |  | 0.838 µM | 1.77 µM | 1.38 µM | 1.75 µM | 0.29 µM | 1.1 µM | 1.91 µM | 2.16 µM | 0.225 µM | 1.77 µM |  |
| COCCOc1cc(C)cc(/C=C(C)/C=C/C2=C(C)CCCC2(C)C)n1 | > 100 µM |  | > 100 µM | > 100 µM | > 100 µM | > 100 µM | > 100 µM | > 100 µM | > 100 µM | > 100 µM |  |  |  |  |  |  |  |  |  |  |
| O=C(O)CCNS(=O)(=O)c1ccc2ccccc2c1 | > 100 µM | > 100 µM | > 100 µM | > 100 µM | > 100 µM | > 100 µM | > 100 µM | > 100 µM | > 100 µM |  |  |  |  |  |  |  |  |  |  |  |
| O=C(C(=O)n1ncc(Cl)c(Cl)c1=O)n1ncc(Cl)c(Cl)c1=O | 44 µM | 46.5 µM | > 100 µM | > 100 µM | 41.5 µM | > 100 µM | > 100 µM | > 100 µM | 35.7 µM |  |  |  |  |  |  |  |  |  |  |  |
| Cc1cc(-c2c(F)cc3c4nn([C@H]5CC[C@@H](N(C)C)CC5)c(=O)c-4cn(C4CC4)c3c2F)cc(C)n1 | 0.346 µM and 1.11 µM |  | 1.11 µM | 0.571 µM | 0.079 µM and 0.554 µM | 14.2 µM | > 100 µM | 0.814 µM | 5.77 µM | 0.0268 µM | 0.185 µM |  |  |  | 0.0207 µM |  |  | 0.002 µM |  |  |
| Cc1c(C(=O)O)n(C)c(=O)n(C)c1=O | > 100 µM | > 100 µM | > 100 µM | > 100 µM | > 100 µM | > 100 µM | > 100 µM | > 100 µM | > 100 µM |  |  |  |  |  |  |  |  |  |  |  |
| C#C[C@@]1(O)[C@@H](CO)O[C@@H](n2cc(I)c3c(N)ncnc32)[C@@H]1O |  | > 100 µM | > 100 µM | 1.22 µM | 6.48 µM | > 100 µM | > 50 µM | > 32 µM | 27.8 µM | > 28.5 µM |  | 0.137 µM | 0.0962 µM | 0.0812 µM | 0.327 µM | 0.933 µM | 0.0996 µM | 0.262 µM | 0.0734 µM | 2.33 µM |
| Cn1cc(C2=C(c3c[nH]c4ccccc34)C(=O)NC2=O)c2ccccc21 | > 25 µM | > 25 µM | > 25 µM | > 25 µM | > 25 µM | > 25 µM | > 25 µM | > 25 µM |  |  | 0.523 µM | 1.12 µM | 0.586 µM | 1.3 µM | 0.218 µM | > 25 µM | 3.31 µM | 0.233 µM | 1.36 µM |  |
| S=C1Cc2c(-c3ccc(Br)cc3)cc(-c3ccccc3)nc2-c2ccccc2N1 | 3.65 µM | 14.6 µM | > 42 µM | 12.6 µM | 12.6 µM | 14.4 µM | 3.52 µM | 2.58 µM | 9.74 µM |  |  |  |  |  |  |  |  |  |  |  |
| O=C(NNc1ccc(Cl)cc1)C1CCC(CNS(=O)(=O)c2ccccc2Cl)CC1 (stereo not drawn) | 12.6 µM | 61.5 µM | 99.4 µM |  | 50.6 µM | 55 µM |  |  | 59.7 µM | 66.4 µM | 2.9 µM | 5.68 µM | 4.37 µM |  | 15 µM | 17.3 µM |  | 10.2 µM |  | 17.1 µM |
